Test results taken from PMC9645390, “Amphiphilic stilbene derivatives attenuate the neurotoxicity of soluble Aβ42 oligomers by controlling their interactions with cell membranes” (Chemical Science, 2022).
Entries after “also recorded” stand apart in the source; their conditions may differ.

Legend:
[1] = test system: Aβ oligomers–SH-SY5Y cell membrane interactions; experiment: Confocal imaging of Aβ oligomers binding to SH-SY5Y cell membranes; type: cell-based, human; details: 5 μM Aβ oligomers + 5 μM compound, 24 h; for Aβ oligomers bound to cell membranes (in words): CF594-HJ 3.4 staining
Text: (§1) Encouraged by the ability of the developed amphiphilic compounds to attenuate the neurotoxicity of Cu–Aβ species, we sought out to study the possible molecular mechanisms for this beneficial effect. The Aβ oligomers were reported to interact with cell membranes in various ways, such as binding to receptors on cell membranes,[49,50] inserting into membranes,[51] or even showing cellular uptake via endocytosis.[52] The abnormal interactions between Aβ oligomers and neuron cells, which could disrupt the neuronal ion homeostasis and neuron cell membrane integrity, might be why Aβ oligomers are highly neurotoxic.[53–55] Moreover, molecules that can disrupt interactions between oligomers and cell membranes are promising candidates for drug development.[56,57] Thus, we proceeded to probe the interactions of the Aβ42 oligomers with SH-SY5Y cellular membranes, in the absence and presence of the compounds, via confocal microscopy. […] Moreover, a lower concentration of Aβ42 (5 μM) or Aβ42–Cu (5 μM) were chosen to avoid significant cell death (Fig. S9b ^†). Before investigating the neuroprotective effect of our compounds, we have also confirmed that Aβ aggregates interact tightly with the cell membranes, as shown via co-staining with a membrane specific dye (Fig. S10 ^†). […]
Fig. 10 (a) SH-SY5Y cells were treated with 5 μM Aβ oligomers in the presence or absence of 5 μM ZY-15-MT or 5 μM ZY-15-OMe for 24 h before imaging. Red and blue fluorescence indicate the Aβ oligomers and nuclei, respectively. […] (b) Three independent experiments were subjected for the statistical analysis and analyzed by one-way ANOVA (*P < 0.05, ***P < 0.001).
(§2) RCSB database and optimized by minimal minimization with the OPLS3 force field using the Protein Preparation Wizard program. […] The calculated poses were ranked by both the docking score and Glide e-model energy, and the structures with the best docking scores and Glide e-model energies were rendered in […]

[2] = test system: Aβ fibrils–SH-SY5Y cell membrane interactions; experiment: Confocal imaging of Aβ fibrils binding to SH-SY5Y cell membranes; type: cell-based, human; details: 5 µM fibrils + 5 µM compound, 24 h
Text: as §1, with “^†).” for “^†). Before investigating the neuroprotective effect of our compounds, we have also confirmed that Aβ aggregates interact tightly with the cell membranes, as shown via co-staining with a membrane specific dye (Fig. S10 ^†).”
as §2

[3] = test system: mouse neuroblastoma N2a cells; experiment: Alamar Blue cytotoxicity assay in N2a cells; type: cell-based; details: 2 to 20 μM

Compound | Aβ oligomers bound to cell membranes (in words) [1] | Aβ fibrils binding to cell membranes (in words) [2] | cytotoxicity (in words) [3] | decrease of the numbers of Aβ oligomers binding to the cell membranes [1]
COc1cc(/C=C/c2ccc(-c3ccc(C=O)cc3)s2)cc(CN2CCN(C)CCN(C)CC2)c1O [ZY-15-OMe] | fewer numbers of Aβ oligomers bound to the cell membranes | not able to significantly decrease the numbers of the Aβ fibrils binding to cell membranes |  | 
COc1cc(OC)cc(-c2ccc(/C=C/c3cc(CN4CCN(C)CCN(C)CC4)c(O)c(CN4CCN(C)CCN(C)CC4)c3)cc2)c1 [ZY-17-DT] |  |  | higher cytotoxicity than others | 
CN1CCN(C)CCN(Cc2cc(/C=C/c3ccc(-c4ccc(C=O)cc4)s3)ccc2O)CC1 [ZY-15-MT] | fewer numbers of Aβ oligomers bound to the cell membranes | not able to significantly decrease the numbers of the Aβ fibrils binding to cell membranes |  | about 50%
COc1cc(OC)cc(-c2ccc(/C=C/c3cc(CN4CCN(C)CCN(C)CC4)c(O)c(OC)c3)cc2)c1 [ZY-17-OMe] |  |  | higher cytotoxicity than others; also recorded: the highest toxicity | 
